“And” between values parts separate entries of the source, which are not always exact repeats. Equal values may be shown once.
Tested on: 266295-075-R-J1-PDC spheroid viability
Test: Anticancer human tumor 266295-075-R-J1-PDC patient-derived head and neck squamous carcinoma cell line growth inhibition [POLQ]
Settings: spheroids with HUVEC and MSC; for viability, T/C: stronger effect = lower value; active = viability on the fitted dose curve at most 10% of control; inactive = the rest
Experimental: Multicellular complex tumor spheroid response to Polymerase (POL) inhibitors (novobiocin, ART-558, RP6685) in combination with a variety of drugs and investigational agents in selected tumor cell lines
The POL inhibitors (novobiocin, ART-558, and RP6685) were evaluated both individually and in combination with standard of care and investigational anticancer small molecules within a complex spheroid model of solid tumors. . Complex spheroids include a stromal component modeled by human endothelial cells (HUVEC) and fibroblasts modeled by human mesenchymal stem cells (MSCs). The concentration ranges selected for each drug and investigational agent were based upon clinically achievable concentrations if the clinical Cmax of the agent was known.
Compounds. The drugs and investigational agents: novobiocin (NSC847541), ART-558 (NSC835418), RP-6685 (NSC848927), peposertib (NSC802822), ceralasertib (NSC780249), elimusertib (NSC800525), camonsertib (NSC841442), AZD-1390 (NSC803789), olaparib (NSC753686), talazoparib (NSC767125), rucaparib (NSC756644), sotorasib (NSC818433), MRTX-1133 (NSC836407), SN-38 (NSC673596), topotecan (NSC609699), epotoside (NSC141540), doxorubicin (NSC123127), gemcitabine (NSC613327), 5-fluorouracil (NSC19893), paclitaxel (NSC125973), vemurafenib (NSC761431), MSA-2 (NSC828583), SN-011 (NSC837082), adavosertib (NSC754352), prexasertib (NSC758257), carboplatin (NSC241240) and oxaliplatin (NSC266046), were obtained from the National Cancer Institute (NCI) Developmental Therapeutics Program Chemical Repository (21). The FDA-approved anticancer drug set is available from the Developmental Therapeutics Program at https://dtp.cancer.gov/organization/dscb/obtaining/. […] The stock solutions were prepared in dimethyl sulfoxide (DMSO, Sigma-Aldrich, St. Louis, MO, cat. D2650), except for the platinum compounds which were prepared in saline (Quality Biological, Gaithersburg, MD, cat. 114-055-101), at 800-fold the tested concentration and stored at -70 degrees C prior to their use. All drugs and investigational agents were tested over a range starting from a high concentration at or near the clinical Cmax and decreasing in half-log increments. If the clinical Cmax for an agent had not been determined, the highest concentration tested was 10 microM, except for SN-38, which was tested at a high concentration of 1 microM.
Cell Culture. All cells were maintained in an incubator at 37 degrees C and 5% CO2 with 95% humidity. The PDC lines were cultured according to standard operating procedures established by the NCI PDMR (https://pdmr.cancer.gov). Table 3 of the manuscript, lists the cell lines along with the number of the three cell types plated to form the mct-spheroids and media for tumor cell growth. After thawing, all PDC lines, except 997537-175-T-J1-PDC and 415267-285-R-J2-PDC, were cultured in Matrigel-coated flasks prepared with a working solution of 1X Ham's F-12 nutrient mix, without supplementation (Thermo Fisher Scientific, cat. 11765054), 100 U/mL penicillin-streptomycin (Thermo Fisher Scientific, cat. 15140122), and 2.5% Matrigel (Corning Inc., Corning, NY, cat. 354248) for the first three passages. The two PDC lines 997537-175-T-J1-PDC and 415267-285-R-J2-PDC were cultured on uncoated flasks. The 857933-349-R-J2-PDC line was cultured in 6C/Colon 1B media containing advanced DMEM/F-12 (Thermo Fisher Scientific, cat. 12634028), 10 mM HEPES (Thermo Fisher Scientific, cat. 15630080), 1X GlutaMAX supplement (Thermo Fisher Scientific, cat. 35050061), 0.1 mg/mL primocin (InvivoGen, San Diego, CA, cat. ant-pm-2), 10% defined fetal bovine serum, heat inactivated (HyClone Laboratories Inc., Logan, UT, cat. SH30070.03HI), 50% L-WRN conditioned media (ATCC, cat. CRL-3276), 1.25 mM N-Acetyl-L-cysteine (Sigma-Aldrich, cat. A9165), 10 mM nicotinamide (Sigma-Aldrich, cat. N0636), 1X B-27 supplement (Thermo Fisher Scientific, cat. 17504044), 1X N-2 supplement (Thermo Fisher Scientific, cat. […]

[1] = curve of first compound, second compound 0.0316 µM
[2] = curve of first compound, second compound 0.1 µM
[3] = curve of first compound, second compound 0.316 µM
[4] = curve of first compound, second compound 1 µM
[5] = curve of first compound, second compound 3.16 µM
[6] = curve of first compound, second compound 10 µM
[7] = second compound 0.0316 µM, first compound 0.0316 µM
[8] = second compound 0.0316 µM, first compound 0.1 µM
[9] = second compound 0.0316 µM, first compound 0.316 µM
[10] = second compound 0.0316 µM, first compound 1 µM
[11] = second compound 0.0316 µM, first compound 3.16 µM
[12] = second compound 0.0316 µM, first compound 10 µM
[13] = second compound 0.1 µM, first compound 0.0316 µM
[14] = second compound 0.1 µM, first compound 0.1 µM
[15] = second compound 0.1 µM, first compound 0.316 µM
[16] = second compound 0.1 µM, first compound 1 µM
[17] = second compound 0.1 µM, first compound 3.16 µM
[18] = second compound 0.1 µM, first compound 10 µM
[19] = second compound 0.316 µM, first compound 0.0316 µM
[20] = second compound 0.316 µM, first compound 0.1 µM
[21] = second compound 0.316 µM, first compound 0.316 µM
[22] = second compound 0.316 µM, first compound 1 µM
[23] = second compound 0.316 µM, first compound 3.16 µM
[24] = second compound 0.316 µM, first compound 10 µM
[25] = second compound 1 µM, first compound 0.0316 µM
[26] = second compound 1 µM, first compound 0.1 µM
[27] = second compound 1 µM, first compound 0.316 µM
[28] = second compound 1 µM, first compound 1 µM
[29] = second compound 1 µM, first compound 3.16 µM
[30] = second compound 1 µM, first compound 10 µM
[31] = second compound 3.16 µM, first compound 0.0316 µM
[32] = second compound 3.16 µM, first compound 0.1 µM
[33] = second compound 3.16 µM, first compound 0.316 µM
[34] = second compound 3.16 µM, first compound 1 µM
[35] = second compound 3.16 µM, first compound 3.16 µM
[36] = second compound 3.16 µM, first compound 10 µM
[37] = second compound 10 µM, first compound 0.0316 µM
[38] = second compound 10 µM, first compound 0.1 µM
[39] = second compound 10 µM, first compound 0.316 µM
[40] = second compound 10 µM, first compound 1 µM
[41] = second compound 10 µM, first compound 3.16 µM
[42] = second compound 10 µM, first compound 10 µM
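Note: spheroids exposed to compounds for seven days before readout.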

CCc1cc2c(N3CCc4c(cc(Cn5ccnc5)cc4-c4cn(C)nc4C(F)(F)F)C3=O)ccnc2c(OC)n1 + Nc1ccc(C#CCN(C(=O)Cc2ncc(C(F)(F)F)cc2C(F)(F)F)c2ccc(F)cc2)nn1
inactive: viability, T/C [7] 92.7% | viability, T/C [8] 102% | viability, T/C [9] 105% | viability, T/C [10] 141% | viability, T/C [11] 183% | viability, T/C [12] 159% | viability, T/C [13] 100% | viability, T/C [14] 110% | viability, T/C [15] 91.7% | viability, T/C [16] 135% | viability, T/C [17] 127% | viability, T/C [18] 132% | viability, T/C [19] 116% | viability, T/C [20] 120% | viability, T/C [21] 110% | viability, T/C [22] 138% | viability, T/C [23] 148% | viability, T/C [24] 127% | viability, T/C [25] 109% | viability, T/C [26] 117% | viability, T/C [27] 97.5% | viability, T/C [28] 114% | viability, T/C [29] 134% | viability, T/C [30] 115% | viability, T/C [31] 99.8% | viability, T/C [32] 103% | viability, T/C [33] 122% | viability, T/C [34] 102% | viability, T/C [35] 110% | viability, T/C [36] 130% | viability, T/C [37] 103% | viability, T/C [38] 97.7% | viability, T/C [39] 118% | viability, T/C [40] 115% | viability, T/C [41] 133% | viability, T/C [42] 121%
> 10 µM: IC50 [1] | IC50 [2] | IC50 [3] | IC50 [4] | IC50 [5] | IC50 [6]

COc1cc(C2c3cc4c(cc3C(OC3OC5COC(C)OC5C(O)C3O)C3COC(=O)C23)OCO4)cc(OC)c1O (stereo not given) + Nc1ccc(C#CCN(C(=O)Cc2ncc(C(F)(F)F)cc2C(F)(F)F)c2ccc(F)cc2)nn1
> 10 µM: IC50 [1] | IC50 [2] | IC50 [3] | IC50 [4] | IC50 [5] | IC50 [6]
inactive: viability, T/C [7] 81.1% | viability, T/C [8] 103% | viability, T/C [9] 77.6% | viability, T/C [10] 94.4% | viability, T/C [11] 98.9% | viability, T/C [12] 82.8% | viability, T/C [13] 84.1% | viability, T/C [14] 97% | viability, T/C [15] 103% | viability, T/C [16] 97.4% | viability, T/C [17] 111% | viability, T/C [18] 80.1% | viability, T/C [19] 97% | viability, T/C [20] 127% | viability, T/C [21] 82.2% | viability, T/C [22] 90.7% | viability, T/C [23] 94.9% | viability, T/C [24] 90.6% | viability, T/C [25] 104% | viability, T/C [26] 94.1% | viability, T/C [27] 92.3% | viability, T/C [28] 96.4% | viability, T/C [29] 92.3% | viability, T/C [30] 88.8% | viability, T/C [31] 75.9% | viability, T/C [32] 118% | viability, T/C [33] 84.8% | viability, T/C [34] 93.2% | viability, T/C [35] 107% | viability, T/C [36] 90.5% | viability, T/C [37] 90.8% | viability, T/C [38] 92.9% | viability, T/C [39] 95.2% | viability, T/C [40] 81.2% | viability, T/C [41] 95.8% | viability, T/C [42] 77.1%

Cn1ncnc1[C@H]1c2n[nH]c(=O)c3cc(F)cc(c23)N[C@@H]1c1ccc(F)cc1
> 0.1 µM: IC50 (curve of compound)
inactive: viability, T/C (compound 0.000316 µM) 103% and 112% and 99.9% | viability, T/C (compound 0.001 µM) 100% and 92.9% and 88.8% | viability, T/C (compound 0.00316 µM) 87.1% and 103% and 107% | viability, T/C (compound 0.01 µM) 102% (2×) and 92.9% | viability, T/C (compound 0.0316 µM) 104% and 112% and 89% | viability, T/C (compound 0.1 µM) 118% and 101% and 105%

COc1cc2cc(C(=O)CCC(=O)O)sc2cc1OC
inactive: viability, T/C (compound 0.0316 µM) 96.8% and 81.4% and 99% | viability, T/C (compound 0.1 µM) 105% and 89.9% and 92.6% | viability, T/C (compound 0.316 µM) 108% and 91.4% and 97.7% | viability, T/C (compound 1 µM) 101% (2×) and 99.7% | viability, T/C (compound 3.16 µM) 87.9% and 109% and 115% | viability, T/C (compound 10 µM) 93.1% and 105% and 85.8%
> 10 µM: IC50 (curve of compound)

CC1COCCN1c1cc(C2(S(C)(=N)=O)CC2)nc(-c2ccnc3[nH]ccc23)n1 (stereo not given) + Nc1ccc(C#CCN(C(=O)Cc2ncc(C(F)(F)F)cc2C(F)(F)F)c2ccc(F)cc2)nn1
9.41 µM: IC50 [4]
> 10 µM: IC50 [1] | IC50 [2] | IC50 [5] | IC50 [6]
inactive: viability, T/C [7] 110% | viability, T/C [8] 93.3% | viability, T/C [9] 83.4% | viability, T/C [10] 75.5% | viability, T/C [11] 67.5% | viability, T/C [12] 63% | viability, T/C [13] 102% | viability, T/C [14] 116% | viability, T/C [15] 92% | viability, T/C [16] 93.9% | viability, T/C [17] 80.2% | viability, T/C [18] 57.2% | viability, T/C [19] 81.9% | viability, T/C [20] 102% | viability, T/C [21] 92.5% | viability, T/C [22] 79% | viability, T/C [23] 78.4% | viability, T/C [24] 45.6% | viability, T/C [25] 97.8% | viability, T/C [26] 109% | viability, T/C [27] 96.6% | viability, T/C [28] 87.6% | viability, T/C [29] 67.6% | viability, T/C [30] 48.9% | viability, T/C [31] 89.9% | viability, T/C [32] 141% | viability, T/C [33] 100% | viability, T/C [34] 92.8% | viability, T/C [35] 69.4% | viability, T/C [36] 57.3% | viability, T/C [37] 95.4% | viability, T/C [38] 99% | viability, T/C [39] 95.5% | viability, T/C [40] 92.7% | viability, T/C [41] 70.6% | viability, T/C [42] 62.9%
8.58 µM: IC50 [3]
